Source: article PMC8708424, “Pharmacologically Targeting the Fibroblast Growth Factor 14 Interaction Site on the Voltage-Gated Na^+ Channel 1.6 Enables Isoform-Selective Modulation” (International Journal of Molecular Sciences, 2021)
Where a SMILES comes first, the peptide text is derived from it. The star is where a group is joined. Fmoc = O=C(OCC1c2ccccc2-c2ccccc21)*; tBu = CC(C)(C)*

Biological target: T1, voltage-gated Na+ channel 1.6 (Nav1.6) (Homo sapiens, UniProt Q9UQD0)
T1 construct: gene SCN8A; hNav1.6 channel stably expressed in HEK293 cells
T1 sequence (Q9UQD0 whole entry): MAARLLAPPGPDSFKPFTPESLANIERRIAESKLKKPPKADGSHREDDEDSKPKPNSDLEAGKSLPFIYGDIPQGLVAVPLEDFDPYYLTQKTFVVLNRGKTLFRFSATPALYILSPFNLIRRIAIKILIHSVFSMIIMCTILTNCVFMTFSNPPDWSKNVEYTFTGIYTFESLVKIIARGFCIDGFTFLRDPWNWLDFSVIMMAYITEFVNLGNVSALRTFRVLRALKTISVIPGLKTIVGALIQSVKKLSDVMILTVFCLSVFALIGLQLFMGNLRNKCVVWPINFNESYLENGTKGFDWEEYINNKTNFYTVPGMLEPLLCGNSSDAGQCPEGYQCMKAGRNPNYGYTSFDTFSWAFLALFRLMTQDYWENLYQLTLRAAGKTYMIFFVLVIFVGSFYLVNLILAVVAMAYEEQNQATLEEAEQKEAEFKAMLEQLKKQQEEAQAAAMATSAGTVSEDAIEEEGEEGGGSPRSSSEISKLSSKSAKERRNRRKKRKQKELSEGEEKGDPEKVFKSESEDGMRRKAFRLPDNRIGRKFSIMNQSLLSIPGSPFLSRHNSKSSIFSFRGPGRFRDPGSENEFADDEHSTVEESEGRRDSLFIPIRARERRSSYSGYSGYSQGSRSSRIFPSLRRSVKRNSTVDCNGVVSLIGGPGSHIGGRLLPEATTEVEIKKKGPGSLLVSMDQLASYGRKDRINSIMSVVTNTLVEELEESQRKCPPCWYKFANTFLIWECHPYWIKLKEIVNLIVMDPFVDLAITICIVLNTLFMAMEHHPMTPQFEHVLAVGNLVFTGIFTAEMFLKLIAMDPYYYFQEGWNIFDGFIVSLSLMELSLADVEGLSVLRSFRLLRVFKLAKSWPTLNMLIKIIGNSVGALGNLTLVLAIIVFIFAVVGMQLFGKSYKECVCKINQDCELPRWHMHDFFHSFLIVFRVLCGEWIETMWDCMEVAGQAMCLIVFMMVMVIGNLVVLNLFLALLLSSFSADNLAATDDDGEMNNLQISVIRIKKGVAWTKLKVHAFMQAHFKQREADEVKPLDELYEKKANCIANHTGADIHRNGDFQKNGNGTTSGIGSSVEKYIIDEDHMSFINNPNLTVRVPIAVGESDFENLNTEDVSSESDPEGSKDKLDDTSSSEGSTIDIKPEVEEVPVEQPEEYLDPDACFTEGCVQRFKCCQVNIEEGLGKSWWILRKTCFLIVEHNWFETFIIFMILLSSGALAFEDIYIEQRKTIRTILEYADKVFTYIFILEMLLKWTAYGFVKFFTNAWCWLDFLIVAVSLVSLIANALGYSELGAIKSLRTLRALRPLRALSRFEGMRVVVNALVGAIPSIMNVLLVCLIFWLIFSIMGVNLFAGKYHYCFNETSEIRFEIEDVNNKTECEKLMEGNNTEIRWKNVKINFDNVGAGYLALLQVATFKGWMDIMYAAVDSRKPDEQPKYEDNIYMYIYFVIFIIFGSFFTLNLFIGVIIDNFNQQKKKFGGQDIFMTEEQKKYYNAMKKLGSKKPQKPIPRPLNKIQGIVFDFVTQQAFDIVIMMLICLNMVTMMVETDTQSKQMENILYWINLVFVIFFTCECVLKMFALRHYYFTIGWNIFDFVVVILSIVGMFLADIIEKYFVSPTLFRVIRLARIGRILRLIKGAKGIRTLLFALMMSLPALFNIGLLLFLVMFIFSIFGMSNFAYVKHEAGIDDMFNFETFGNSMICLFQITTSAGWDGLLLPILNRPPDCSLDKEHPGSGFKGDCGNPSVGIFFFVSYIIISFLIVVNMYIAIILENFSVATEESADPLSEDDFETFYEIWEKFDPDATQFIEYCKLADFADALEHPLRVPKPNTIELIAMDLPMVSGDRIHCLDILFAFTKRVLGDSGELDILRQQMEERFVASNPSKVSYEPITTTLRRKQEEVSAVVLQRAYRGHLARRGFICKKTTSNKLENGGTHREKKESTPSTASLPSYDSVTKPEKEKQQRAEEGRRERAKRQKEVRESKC
Assay: whole-cell voltage-clamp electrophysiology in HEK-Nav1.[…] cells, peak transient INa dose-response
Format: cell-based

IC50: 15.1 µM
SMILES: CC(C)[C@H](NC(=O)[C@H](Cc1ccc(OC(C)(C)C)cc1)NC(=O)[C@H](Cc1ccc(OC(C)(C)C)cc1)NC(=O)OCC1c2ccccc2-c2ccccc21)C(N)=O [PW201] (Fmoc-Tyr(tBu)-Tyr(tBu)-Val-NH2)
